# In patent US12077503B2, “Substituted cyclic amides and their use as herbicides” (FMC CORPORATION, priority 2015, dated 2024):
# Columns and labels:
# Assay in all cases: Test C preemergence
# Type in all cases: in vivo
# [1] = tested on: ragweed (common ragweed, Ambrosia elatior); settings: for Plant response rating, Ragweed: scale 0 to 100, 0 no effect, 100 complete control
# Description: (§1) Seeds of plant species selected from blackgrass (Alopecurus myosuroides), ryegrass, Italian (Italian ryegrass, Lolium multiflorum), wheat (winter wheat, Triticum aestivum), Galium (catchweed bedstraw, Galium aparine), corn (Zea mays), crabgrass, large (large crabgrass, Digitaria sanguinalis), foxtail, giant (giant foxtail, Setaria faberii), johnsongrass (Sorghum halepense), lambsquarters (Chenopodium album), morningglory (Ipomoea coccinea), nutsedge, yellow (yellow nutsedge, Cyperus esculentus), pigweed (Amaranthus retroflexus), ragweed (common ragweed, Ambrosia elatior), soybean (Glycine max), barnyardgrass (Echinochloa crus-galli), oilseed rape (Brassica napus), waterhemp (common waterhemp, Amaranthus rudis) and velvetleaf (Abutilon theophrasti) were planted into a blend of loam soil and sand and treated preemergence with test chemicals formulated in a non-phytotoxic solvent mixture which included a surfactant.
# (§2) At the same time, plants selected from these crop and weed species and also Kochia (Kochia scoparia), oat, wild (wild oat, Avena fatua), and chickweed (common chickweed, Stellaria media) were planted in pots containing Sunshine Redi-Earth® planting medium comprising spaghnum peat moss, vermiculite, starter nutrients and dolomitic limestone and treated with postemergence applications of test chemicals formulated in the same manner. Plants ranged in height from 2 to 18 cm (1- to 4-leaf stage) for postemergence treatments. Treated plants and controls were maintained in a greenhouse for 13 to 15 d, after which time all species were compared to controls and visually evaluated. Plant response ratings, summarized in Table C, are based on a scale of 0 to 100 where 0 is no effect and 100 is complete control. A dash (-) response means no test result.
# [2] = tested on: nutsedge, yellow (yellow nutsedge, Cyperus esculentus); settings: for Plant response rating, Nutsedge, Yellow: scale 0 to 100, 0 no effect, 100 complete control
# Description: as §1, §2
# corn (Zea mays) = settings: for Plant response rating, Corn: scale 0 to 100, 0 no effect, 100 complete control
# Description: as §1, §2
# [3] = tested on: blackgrass (Alopecurus myosuroides); settings: for Plant response rating, Blackgrass: scale 0 to 100, 0 no effect, 100 complete control
# Description: as §1, §2
# [4] = tested on: oilseed rape (Brassica napus); settings: for Plant response rating, Oilseed Rape: scale 0 to 100, 0 no effect, 100 complete control
# Description: as §1, §2
# [5] = tested on: pigweed (Amaranthus retroflexus); settings: for Plant response rating, Pigweed: scale 0 to 100, 0 no effect, 100 complete control
# Description: as §1, §2
# [6] = tested on: crabgrass, large (large crabgrass, Digitaria sanguinalis); settings: for Plant response rating, Crabgrass, Large: scale 0 to 100, 0 no effect, 100 complete control
# Description: as §1, §2
# [7] = tested on: velvetleaf (Abutilon theophrasti); settings: for Plant response rating, Velvetleaf: scale 0 to 100, 0 no effect, 100 complete control
# Description: as §1, §2
# [8] = tested on: Galium (catchweed bedstraw, Galium aparine); settings: for Plant response rating, Galium: scale 0 to 100, 0 no effect, 100 complete control
# Description: as §1, §2
# [9] = tested on: foxtail, giant (giant foxtail, Setaria faberii); settings: for Plant response rating, Foxtail, Giant: scale 0 to 100, 0 no effect, 100 complete control
# Description: as §1, §2
# [10] = tested on: lambsquarters (Chenopodium album); settings: for Plant response rating, Lambsquarters: scale 0 to 100, 0 no effect, 100 complete control
# Description: as §1, §2
# [11] = tested on: johnsongrass (Sorghum halepense); settings: for Plant response rating, Johnsongrass: scale 0 to 100, 0 no effect, 100 complete control
# Description: as §1, §2
# [12] = tested on: waterhemp (common waterhemp, Amaranthus rudis); settings: for Plant response rating, Waterhemp: scale 0 to 100, 0 no effect, 100 complete control
# Description: as §1, §2
# [13] = tested on: ryegrass, Italian (Italian ryegrass, Lolium multiflorum); settings: for Plant response rating, Ryegrass, Italian: scale 0 to 100, 0 no effect, 100 complete control
# Description: as §1, §2
# soybean (Glycine max) = settings: for Plant response rating, Soybean: scale 0 to 100, 0 no effect, 100 complete control
# Description: as §1, §2
# [14] = tested on: barnyardgrass (Echinochloa crus-galli); settings: for Plant response rating, Barnyardgrass: scale 0 to 100, 0 no effect, 100 complete control
# Description: as §1, §2
# [15] = tested on: morningglory (Ipomoea coccinea); settings: for Plant response rating, Morningglory: scale 0 to 100, 0 no effect, 100 complete control
# Description: as §1, §2
# [16] = tested on: wheat (winter wheat, Triticum aestivum); settings: for Plant response rating, Wheat: scale 0 to 100, 0 no effect, 100 complete control
# Description: as §1, §2
# [17] = 31 g ai/ha, 0 is no effect, 100 is complete control
smiles,measurement,setting,value
CN1CC(c2cccc(OC(F)F)c2)C(C(=O)Nc2ccccc2S(C)(=O)=O)C1=O (stereo not drawn) [Compound 523],"Plant response rating (scale of 0 to 100), Ragweed",[1]; [17],5
same,"Plant response rating, Ragweed",[1]; 62 g ai/ha,15
same,"Plant response rating, Ragweed",[1]; 125 g ai/ha,40
same,"Plant response rating, Ragweed",[1]; 250 g ai/ha,70
same,"Plant response rating (scale of 0 to 100), Nutsedge, Yellow",[2]; [17],0
same,"Plant response rating, Nutsedge, Yellow",[2]; 62 g ai/ha,0
same,"Plant response rating, Nutsedge, Yellow",[2]; 125 g ai/ha,0
same,"Plant response rating, Nutsedge, Yellow",[2]; 250 g ai/ha,40
same,"Plant response rating (scale of 0 to 100), Corn",corn (Zea mays); [17],0
same,"Plant response rating, Corn",corn (Zea mays); 62 g ai/ha,20
same,"Plant response rating, Corn",corn (Zea mays); 125 g ai/ha,65
same,"Plant response rating, Corn",corn (Zea mays); 250 g ai/ha,85
same,"Plant response rating (scale of 0 to 100), Blackgrass",[3]; [17],0
same,"Plant response rating, Blackgrass",[3]; 62 g ai/ha,0
same,"Plant response rating, Blackgrass",[3]; 125 g ai/ha,20
same,"Plant response rating, Blackgrass",[3]; 250 g ai/ha,90
same,"Plant response rating (scale of 0 to 100), Oilseed Rape",[4]; [17],0
same,"Plant response rating, Oilseed Rape",[4]; 62 g ai/ha,0
same,"Plant response rating, Oilseed Rape",[4]; 125 g ai/ha,30
same,"Plant response rating, Oilseed Rape",[4]; 250 g ai/ha,60
same,"Plant response rating (scale of 0 to 100), Pigweed",[5]; [17],75
same,"Plant response rating, Pigweed",[5]; 62 g ai/ha,100
same,"Plant response rating, Pigweed",[5]; 125 g ai/ha,90
same,"Plant response rating, Pigweed",[5]; 250 g ai/ha,90
same,"Plant response rating (scale of 0 to 100), Crabgrass, Large",[6]; [17],90
same,"Plant response rating, Crabgrass, Large",[6]; 62 g ai/ha,95
same,"Plant response rating, Crabgrass, Large",[6]; 125 g ai/ha,100
same,"Plant response rating, Crabgrass, Large",[6]; 250 g ai/ha,98
same,"Plant response rating (scale of 0 to 100), Velvetleaf",[7]; [17],0
same,"Plant response rating, Velvetleaf",[7]; 62 g ai/ha,0
same,"Plant response rating, Velvetleaf",[7]; 125 g ai/ha,30
same,"Plant response rating, Velvetleaf",[7]; 250 g ai/ha,45
same,"Plant response rating (scale of 0 to 100), Galium",[8]; [17],0
same,"Plant response rating, Galium",[8]; 62 g ai/ha,80
same,"Plant response rating, Galium",[8]; 125 g ai/ha,80
same,"Plant response rating, Galium",[8]; 250 g ai/ha,80
same,"Plant response rating (scale of 0 to 100), Foxtail, Giant",[9]; [17],85
same,"Plant response rating, Foxtail, Giant",[9]; 62 g ai/ha,90
same,"Plant response rating, Foxtail, Giant",[9]; 125 g ai/ha,98
same,"Plant response rating, Foxtail, Giant",[9]; 250 g ai/ha,98
same,"Plant response rating (scale of 0 to 100), Lambsquarters",[10]; [17],20
same,"Plant response rating, Lambsquarters",[10]; 62 g ai/ha,70
same,"Plant response rating, Lambsquarters",[10]; 125 g ai/ha,70
same,"Plant response rating, Lambsquarters",[10]; 250 g ai/ha,65
same,"Plant response rating (scale of 0 to 100), Johnsongrass",[11]; [17],0
same,"Plant response rating, Johnsongrass",[11]; 62 g ai/ha,30
same,"Plant response rating, Johnsongrass",[11]; 125 g ai/ha,60
same,"Plant response rating, Johnsongrass",[11]; 250 g ai/ha,70
same,"Plant response rating (scale of 0 to 100), Waterhemp",[12]; [17],55
same,"Plant response rating, Waterhemp",[12]; 62 g ai/ha,65
same,"Plant response rating, Waterhemp",[12]; 125 g ai/ha,65
same,"Plant response rating, Waterhemp",[12]; 250 g ai/ha,80
same,"Plant response rating (scale of 0 to 100), Ryegrass, Italian",[13]; [17],0
same,"Plant response rating, Ryegrass, Italian",[13]; 62 g ai/ha,5
same,"Plant response rating, Ryegrass, Italian",[13]; 125 g ai/ha,5
same,"Plant response rating, Ryegrass, Italian",[13]; 250 g ai/ha,20
same,"Plant response rating (scale of 0 to 100), Soybean",soybean (Glycine max); [17],10
same,"Plant response rating, Soybean",soybean (Glycine max); 62 g ai/ha,25
same,"Plant response rating, Soybean",soybean (Glycine max); 125 g ai/ha,30
same,"Plant response rating, Soybean",soybean (Glycine max); 250 g ai/ha,45
same,"Plant response rating (scale of 0 to 100), Barnyardgrass",[14]; [17],65
same,"Plant response rating, Barnyardgrass",[14]; 62 g ai/ha,95
same,"Plant response rating, Barnyardgrass",[14]; 125 g ai/ha,98
same,"Plant response rating, Barnyardgrass",[14]; 250 g ai/ha,100
same,"Plant response rating (scale of 0 to 100), Morningglory",[15]; [17],20
same,"Plant response rating, Morningglory",[15]; 62 g ai/ha,35
same,"Plant response rating, Morningglory",[15]; 125 g ai/ha,25
same,"Plant response rating, Morningglory",[15]; 250 g ai/ha,35
same,"Plant response rating (scale of 0 to 100), Wheat",[16]; [17],0
same,"Plant response rating, Wheat",[16]; 62 g ai/ha,30
same,"Plant response rating, Wheat",[16]; 125 g ai/ha,50
same,"Plant response rating, Wheat",[16]; 250 g ai/ha,80
